Test results reported in patent US9918983B2, “Suicidal LSD1 inhibitors targeting SOX2-expressing cancer cells” (THE BOARD OF REGENTS OF THE NEVADA SYSTEM OF HIGHER …, priority 2013, dated 2018).

What was measured:
Sox2 = Sox2 protein level by western blotting in carcinoma cells; type: cell-based, human; design: dose or concentration left out as unconfirmed; details: indicated carcinoma cells, 30 hr
Excerpt: Log-phase growing cancer cells were directly lysed in a buffer containing 0.5% SDS. Proteins in the lysates were equalized and analyzed by Western blotting using antibodies against Sox2, LSD1, H3K4Me1, H3K4Me2, Oct4, and other proteins as described previously or in the figure descriptions (Wang, J., et al. (2011) Cancer Research 71, 7238-7249). For immunohistochemical staining, rabbit monoclonal anti-LSD1 (clone C69G12, cat. #2184) and anti-Sox2 (clone D6D9, cat. #3579) antibodies were obtained from Cell Signaling. Rabbit anti-Sox2 polyclonal antibodies were raised using the purified GST-Sox2 fusion protein as the antigen.
Referring to FIG. 11A, inactivation of LSD1 by LSD1 inhibitors or siRNAs caused the downregulation of Sox2. The indicated carcinoma cells were treated with […] of the LSD1 inhibitors CBB1007 and CBB1003 for 30 hr or with 50 nM of Luc or LSD1 siRNAs for 60 hr. The protein levels of LSD1, Sox2, Lin28, CUL1, and histone H3 were analyzed by western blotting.

ES-2 cells = test: Cell growth/viability (MTT, microscopy); type: cell-based, human
Procedure: (§1) Lung, breast, ovarian, and other carcinoma cells were either obtained from American Type Culture Collection (ATCC) or from the DTP and DCTD Tumor Repository of National Cancer Institute (the NCI-60 cancer cell line panel), operated by Charles River Laboratory, Inc., as listed in Table 1. They were cultured according to instructions and treated with various concentrations of LSD1 inhibitors for 30-36 hours for mRNA analysis by quantitative real time RT-PCR or for 30-48 hours for protein analysis and the cell viability assays using Western blotting or microscopy and MTT assays as described previously (Wang, J., et al. (2011) Cancer Research 71, 7238-7249).
Alternatively, cell viability assays were conducted as previously described (Wang, J., et al. (2011) Cancer Research 71, 7238-7249). […] Dimethylsulfoxide (DMSO) was used as a solvent control. MTT was added to a final concentration of 0.5 mg/mL and cells were re-incubated for 4 hours. After removing the medium, 200 μL DMSO was added to dissolve formazan, followed by incubation for 10 minutes, and absorbance was measured at 490 nm by a Bio Red microplate reader. All assays were performed in triplicates for each concentration. The cell viability rate was calculated as the relative percentage of MTT absorption as follows: % cell viability=(mean experimental absorbance/mean control absorbance)×100.
(§2) Table 8 below lists activity of CBB3001 (compound 10) in Sox2-negative (ES-2) and Sox2-expressing (PA-1 and T47D) cancer cells determined in a cell-based assay as described herein (see also FIG. 3A-C).

TP63 and KRT6A [1] = test: TP63 and KRT6A mRNA by real-time RT-PCR in A549 cells; type: cell-based, human; details: 50 μM, 30 hours
Procedure: (§3) Total RNA was extracted using TRIZOL reagent (TaKaRa) and complementary DNA was generated according to instructions in the PrimeScript 1st strand cDNA Synthesis Kit (TaKaRa) as described previously (Wang, J., et al. (2011) Cancer Research 71, 7238-7249). The cDNAs were diluted to 1/20 and 1 μL of each diluted sample was used as template for each sample. Real-time quantitative PCR was performed on an ABI Prism 7300 sequence detection system (Applied Biosystems) using SYBR Green (TaKaRa) according to the manufacturer's instructions. PCR amplification of the housekeeping gene β-Actin was performed as a control. Experiments for specific silencing or induction of gene expression were repeated at least three times. The real-time PCR primers of human genes are described in Table 3 above.
(§4) Left panels: lung carcinoma NCI-H520, A549, and H1299 cells were either treated with 50 μM CBB1003 for 30 hours or were transfected with Luc, LSD1, or Sox2 specific siRNAs for 48 hours as indicated. […] The statistical differences between experimental and control groups were analyzed by one-way ANOVA (*: p<0.05 and **: p<0.01). Right panels: the ablation efficiency of LSD1 and Sox2 siRNAs was examined.

TP63 and KRT6A [2] = test: TP63 and KRT6A mRNA by real-time RT-PCR in NCI-H520 cells; type: cell-based, human; details: 50 μM, 30 hours
Procedure: as §3, §4

SK-BR-3 cells = test: Cell growth/viability (MTT, microscopy); type: cell-based, human; details: 50 μM, 30 hours
Procedure: as §1
(§5) Alternatively, cell viability assays were conducted as previously described (Wang, J., et al. (2011) Cancer Research 71, 7238-7249). For the MTT assay, cells were seeded onto 96-well culture plates with a density of 2000-5000 cells/well, and incubated with CBB1003 or CBB1007 at various concentrations from 1 to 100 μM for 30-48 hours, depending cell growth rate. Dimethylsulfoxide (DMSO) was used as a solvent control. MTT was added to a final concentration of 0.5 mg/mL and cells were re-incubated for 4 hours. After removing the medium, 200 μL DMSO was added to dissolve formazan, followed by incubation for 10 minutes, and absorbance was measured at 490 nm by a Bio Red microplate reader. All assays were performed in triplicates for each concentration. The cell viability rate was calculated as the relative percentage of MTT absorption as follows: % cell viability=(mean experimental absorbance/mean control absorbance)×100.

SKOV-3 cells = test: Cell growth/viability (MTT, microscopy); type: cell-based, human; details: 50 μM, 30 hours
Procedure: as §1, §5

IGROV-1 cells = test: Cell growth/viability (MTT, microscopy); type: cell-based, human; details: 50 μM, 30 hours
Procedure: as §1, §5

MCF7 cells = test: Cell growth/viability (MTT, microscopy); type: cell-based, human; details: 50 μM, 30 hours
Procedure: as §1, §5

BT-549 cells = test: Cell growth/viability (MTT, microscopy); type: cell-based, human; details: BT549 cells, 50 μM, 30 hours
Procedure: as §1, §5

HS38.T cells = test: Cell growth/viability (MTT, microscopy); type: cell-based, human; details: 50 μM, 30 hours
Procedure: as §1, §5

G401 cells = test: Cell growth/viability (MTT, microscopy); type: cell-based, human; details: 50 μM, 30 hours
Procedure: as §1
(§6) Alternatively, cell viability assays were conducted as previously described (Wang, J., et al. (2011) Cancer Research 71, 7238-7249). […] After removing the medium, 200 μL DMSO was added to dissolve formazan, followed by incubation for 10 minutes, and absorbance was measured at 490 nm by a Bio Red microplate reader. […] The cell viability rate was calculated as the relative percentage of MTT absorption as follows: % cell viability=(mean experimental absorbance/mean control absorbance)×100.
Referring to FIG. 10B, Sox2-expressing myelogenous leukemia and rhabdoid tumor cells were also sensitive to LSD1 inhibitors. […] The statistical differences between compound treated and control groups were analyzed by One-way ANOVA. *: p<0.05 and **: p<0.01.

PA-1 cells [3] = test: Cell growth/viability (MTT, microscopy); type: cell-based, human
Procedure: as §1, §5, §2

LSD1 = molecular target: T1, LSD1 (Homo sapiens, UniProt O60341); test: LSD1 activity (LSD1 IC50, Table 7, FIG. 2); type: cell-based
T1 construct: LSD1 activity determined in a cell-based assay as described herein; endogenous in cells
Procedure: For a typical deacetylation assay, 1 μg rHDAC1 or 1 μg immunoprecipitated endogenous HDAC1-protein A complexes (from two 10-cm dishes) was incubated with 0.4 μg H4K16ac peptide in the presence or absence of 50 μM CBB1007 or 2 μM MS-275 at 30° C. for 1 h. The percentages of deacetylated products were analyzed by mass spectrometry, and the data were analyzed by GraphPad Prism (version 5) software. The reaction products were analyzed by mass spectrometry to separate the peptide substrate (H4K16ac) and the product (H4K16), as previously described (Wang, J., et al. (2011) Cancer Research 71, 7238-7249). For a typical demethylation assay, 0.4 μg H3K4me2 substrate peptide was incubated individually with 1 μg recombinant LSD1 (rLSD1) or 1 μg immunoprecipitated LSD1-protein A complex in the presence or absence of 50 μM CBB1007 or 2 μM MS-275 at 30° C. for 1 h. The reaction products were analyzed by mass spectrometry to separate the products (H3K4me1 and H3K4) from the substrate (H3K4me2), as previously described (Wang, J., et al. (2011) Cancer Research 71, 7238-7249).
Table 7 below lists specific compounds and LSD1 activity determined in a cell-based assay as described herein (see also FIGS. 2A and 2B).

T47D cells = test: Cell growth/viability (MTT, microscopy); type: cell-based; details: Homo sapiens; Sox2-expressing T47D cancer cells
Procedure: as §1, §6, §2

OCT4, SOX2, FOXA2, BMP2 [4] = test: Expression of pluripotency and differentiation genes in F9 cells; type: cell-based, mouse
Procedure: (§8) Alternatively, total RNA was extracted with the TRIzol reagent (Invitrogen), and cDNA was generated using a cloned avian myeloblastosis virus first-strand cDNA synthesis kit (TaKaRa). The mRNA levels of the target genes were quantified by realtime PCR using SYBR green (TaKaRa) in an ABI Prism 7300 real-time PCR system (Applied Biosystems). […] To synchronize PA-1 and F9 cells at the G1/S phase transition, cells were treated with 2.5 mM thymidine for 12 h, released into fresh medium for 6 h, and blocked again with 2.5 mM thymidine for an additional 12 h. The cell cycle arrest was analyzed by FACS. For differentiation, F9 and PA-1 cells were seeded in 6-well plates at a density of 1×10^4 cells per well and supplemented with 5 μM RA for 3 days. Cells were then recultured in fresh medium without RA for another 2 days, and the cell cycle was analyzed on a BD FACSCalibur cell sorter using the CellQuest program (Becton, Dickinson, Mountain View, Calif.). The percentages of cells in G1, S, and G2/M phases were determined by the use of ModFit LT software.

F9 cells = test: Cell cycle analysis by FACS in F9 cells; type: cell-based, mouse; details: 5 μM RA for 3 days
Procedure: (§7) The fluorescence-activated cell sorting (FACS) and 3-(4,5-dimethyl-2-thiazolyl)-2,5-diphenyl-2H-tetrazolium bromide (MTT) assays were conducted as described previously (Lan, R., et al. (2012) Lab. Invest. 92, 1503-1514). To synchronize PA-1 and F9 cells at the G1/S phase transition, cells were treated with 2.5 mM thymidine for 12 h, released into fresh medium for 6 h, and blocked again with 2.5 mM thymidine for an additional 12 h. The cell cycle arrest was analyzed by FACS. For differentiation, F9 and PA-1 cells were seeded in 6-well plates at a density of 1×10^4 cells per well and supplemented with 5 μM RA for 3 days. Cells were then recultured in fresh medium without RA for another 2 days, and the cell cycle was analyzed on a BD FACSCalibur cell sorter using the CellQuest program (Becton, Dickinson, Mountain View, Calif.). The percentages of cells in G1, S, and G2/M phases were determined by the use of ModFit LT software.

PA-1 cells [5] = test: Cell cycle analysis by FACS in PA-1 cells; type: cell-based, human; details: 5 μM RA for 3 days
Procedure: as §7

OCT4, SOX2, FOXA2, BMP2 [6] = test: Expression of pluripotency and differentiation genes in PA-1 cells; type: cell-based, human
Procedure: as §8

## N=C(N)c1ccc(C(=O)N2CCN(C(=O)c3cc(CN4CCN(C(=N)N)CC4)cc([N+](=O)[O-])c3)CC2)cc1 [CBB1003]
Sox2
  Sox2 protein level: downregulation
ES-2 cells; ES-2 cells, 50 μM, 30 hours
  cell growth: not sensitive
TP63 and KRT6A [1]
  mRNA levels of TP63 and KRT6A: down-regulated
TP63 and KRT6A [2]
  mRNA levels of TP63 and KRT6A: down-regulated
SK-BR-3 cells
  cell growth: not sensitive
SKOV-3 cells
  cell growth: sensitive
IGROV-1 cells
  cell growth: sensitive
MCF7 cells
  cell growth: sensitive
BT-549 cells
  cell growth: not sensitive
HS38.T cells
  cell growth: not sensitive
G401 cells
  cell growth: inhibited
PA-1 cells [3]; PA-1 cells, 50 μM, 30 hours
  cell growth: sensitive

## CC(C)(C)OC(=O)N[C@@H]1C[C@H]1c1ccc(OC(=O)OC(C)(C)C)cc1 [Compound 10, Tert-Butyl ((1R,2S)-2-(4-((Tert-Butoxycarbonyl)Oxy)Phenyl)Cyclopropyl)Carbamate]
ES-2 cells; Homo sapiens, Sox2-negative ES-2 cancer cells
  IC50: 310 µM
LSD1
  IC50: 21.2 µM
T47D cells
  IC50: 22.1 µM
PA-1 cells [3]; Homo sapiens, Sox2-expressing PA-1 cancer cells
  IC50: 15.2 µM

## CC1=C(/C=C/C(C)=C/C=C/C(C)=C/C(=O)O)C(C)(C)CCC1 [RA, all-trans-retinoic acid]
OCT4, SOX2, FOXA2, BMP2 [4]
  OCT4 and SOX2 levels: reduction
  genes for differentiation, such as FOXA2 and BMP2: induction
F9 cells
  cell cycle effect: G1 cell cycle arrest
PA-1 cells [5]
  cell cycle effect: G1 cell cycle arrest
OCT4, SOX2, FOXA2, BMP2 [6]
  OCT4 and SOX2 levels: reduction
  genes for differentiation, such as FOXA2 and BMP2: induction
